Reference: patent US20150141506A1, “INDANE DIMERS FOR USE IN THE TREATMENT OF AUTOIMMUNE INFLAMMATORY DISEASE” (Venantius Limited, priority 2012, published 2015)
Converted amounts (≈) assume the structure as drawn. “Also recorded” adds a separate entry of the source. Where two headings read alike, the source gives them in different places. Marks after values point to notes of the source that are not given here.

What was measured:
[1] = tested on: 5% DSS colitis in BALB/c mice; experiment: Acute murine 5% DSS colitis model, Experiment 1; format: in vivo; conditions: for activity in 5% DSS murine colitis (DAI), in words: 30 mg/kg p.o. daily for 7 days
Text: The study is widely used as a model for studying the pathogenesis of UC and also for screening new therapeutic interventions for the treatment of UC.
In these studies, an acute colitis model was used, with 5% DSS administered in the drinking water of BALB/c mice. This dosage regime induces severe acute colitis, by days 7-8 mice had overt rectal bleeding and marked weight loss; unless sacrificed beforehand, all mice would have died by days 10-12.
Specific Pathogen-Free BALB/c mice, 6-8 weeks of age, were obtained from a commercial supplier (Harlan UK). Mice were fed irradiated diet and housed in individually ventilated cages (Tecniplast UK) under positive pressure.
DSS (5%) was dissolved in drinking water. Compounds were administered orally at a dose of 10 mg/kg or 30 mg/kg on days 0-7, and mice were culled on day 8 or day 9, depending on the severity of the disease. The mice were checked each day for morbidity and the weight of individual mice was recorded. Induction of colitis was determined upon autopsy, length of colon and histology. Colons were recovered and stored at −20° C. for immunological analysis. All of the compounds and experimental groups are randomly alphabetically labelled. Throughout experiments all data recording was performed in a blind manner. The codes on boxes/groups were not broken until after the data was analysed i.e. boxes labelled A, B, C etc were identified as untreated, DSS-treated, or DSS+compound-treated.
To quantify the extent of colitis, a disease activity index (DAI) was determined based on weight loss, faecal blood and stool consistency. A score was given for each parameter, with the sum of the scores used as the DAI. For each treatment group n=8.
All compounds were prepared for oral gavage (0.1 mL per os (p.o.) per 10 g body weight) as a suspension in 0.5% carboxymethyl cellulose/2% Tween 80, at a dose of 3-30 mg/Kg.

[2] = tested on: IL2 release from Jurkat cells; experiment: Effect of compounds on IL-2 secretion in T lymphocytes (Jurkat 6.1, anti-CD3/anti-CD28 stimulated, ELISA); format: cell-based; conditions: 24 h; for IL-2 production, absolute values: 30 min pre-treatment, DMSO control 320.67 (plate 2), 338.25 (plate 3)
Experimental: The T cell line Jurkat 6.1 (ATCC) was used. Cells were pre-treated for 30 min with 1 μM or 10 μM of the respective compound and then stimulated with plate-bound anti-CD3 (BD Pharmingen) and anti-CD28 (AnCell). DMSO was used as vehicle control. […] After 24 hs the supernatant was collected and IL-2 secretion was measured by ELISA.
Compounds were prepared by dissolution in DMSO to yield final concentrations of 1 and 10 μg/ml

[3] = Partition coefficient (Log10 POW) by HPLC method; format: physicochemical; conditions: reverse phase C18 HPLC; for Log10 POW, Acid: acidic pH; for Log10 POW, Basic: alkaline pH; for Log10 POW, Neutral: neutral pH
[4] = Solubility in Milli-RO water and pH buffers; format: physicochemical; conditions: for aqueous solubility, in words: free acid enantiomers
Experimental: The sodium salt, potassium salt, calcium salt, α-methylbenzylamine salt and N-Methyl-(D)-Glucamine salt were synthesised.
The solubility of the four compounds were determined: […]

[5] = day 7, 30 mg/kg p.o. daily for 7 days, vehicle 9.0±0.53
[6] = day 7, 10 mg/kg daily for 7 days, vehicle 9.3±0.51

Which “DAI on the day of autopsy versus vehicle controls” value ([1]; 5 mg/kg) does the source give for `C[C@]12C=CC(=O)C=C1CC[C@@H]1[C@@H]2[C@@H](O)C[C@@]2(C)[C@H]1CC[C@]2(O)C(=O)CO` [Prednisolone, reference compound] here?
The value was “reduced DAI scores”.

And the “colon cytokine levels (IL1β, TNFα, IL6)” value ([1]; day 7, Prednisolone 5 mg/kg)?
Its value is “reduced (p<0.05)”.

What about the “inhibition of colon shortening versus vehicle controls” value ([1]; day 7, Prednisolone 5 mg/kg) of the same molecule?
Its value is “did have a significant effect”.

What about the “reduction of colonic myeloperoxidase (MPO) activity” value ([1]; day 7, Prednisolone 5 mg/kg) of the same molecule?
Its value is 54%.

What about the “colon pathology (histology score) relative to vehicle” value ([1]; prednisolone 5 mg/Kg) of the same molecule?
Its value is “no significant improvement”.

For `O=C(O)c1ccc(C[C@@]2(C3=Cc4ccccc4C3)Cc3ccccc3[C@@H]2O)cc1` [Compound 4, 4-(((1R,2S)-1-hydroxy-2,3-dihydro-1H,1′H-2,2′-biinden-2-yl)methyl)benzoic acid], which “IL-2 production, absolute values” ([2]; compound 1 uM) is on record?
The value was 97.21 pg/mL.

And the “IL-2 production, absolute values” ([2]; compound 10 uM)?
Its value is 94.21 pg/mL.

What about the “activity in 5% DSS murine colitis (DAI), in words” value [1] of the same molecule?
Its value is “without activity; also recorded: almost devoid of activity”.

What does the source list for `O=C(O)c1ccc(C[C@]2(C3=Cc4ccccc4C3)Cc3ccccc3[C@@H]2O)cc1` (single isomer, unassigned) [Compound 3]?
IL-2 production, absolute values ([2]; compound 1 uM): 150.07 pg/mL; IL-2 production, absolute values ([2]; compound 10 uM): 98.57 pg/mL; activity in 5% DSS murine colitis (DAI), in words [1]: minimal activity; disease activity index (DAI) [1, 5]: 5.3±0.6

For `CNCC(O)C(O)C(O)C(O)CO.O=C(O)c1ccc(C[C@]2(C3=Cc4ccccc4C3)Cc3ccccc3[C@H]2O)cc1` [Compound 7, 6-(Methylamino)hexane-1,2,3,4,5-pentanol 4-(((1S,2R)-1-hydroxy-2,3-dihydro-1H,1′H-2,2′-biinden-2-yl)methyl)benzoate], which “Log10 POW, Acid” value [3] is on record?
Its value is 3.8.

And the “Log10 POW, Basic” value [3]?
The value was 3.5.

And the “Log10 POW, Neutral” value [3]?
The value was 3.5.

And the “disease activity index (DAI)” value [1, 6]?
Its value is “no significant (P>0.05) effect”.

What about the “solubility, Milli-RO H20” value ([4]; Milli-RO water, listed as Compound 5 N-Methyl-D-Glucamine salt) of the same molecule?
The value was >60,000* μg/mL.

And the “solubility, pH 4.0 Buffer” value ([4]; pH 4.0 buffer)?
The value was 0.14 μg/mL.

And the “solubility, pH 7.0 Buffer” value ([4]; pH 7.0 buffer, listed as Compound 5 N-Methyl-D-Glucamine salt)?
The value was >60,000* μg/mL.

And the “solubility, pH 9.0 Buffer” value ([4]; pH 9.0 buffer, listed as Compound 5 N-Methyl-D-Glucamine salt)?
Its value is >60,000* μg/mL.

Which results are given for `O=C(O)c1ccc(C[C@]2(C3=Cc4ccccc4C3)Cc3ccccc3[C@H]2O)cc1` [Compound 5, 4-(((1S,2R)-1-hydroxy-2,3-dihydro-1H,1′H-2,2′-biinden-2-yl)methyl)benzoic acid]?
Log10 POW, Acid [3]: 3.9; Log10 POW, Basic [3]: 3.7; Log10 POW, Neutral [3]: 3.7; IL-2 production, absolute values ([2]; compound 1 uM): 127.29 pg/mL; IL-2 production, absolute values ([2]; compound 10 uM): 134.14 pg/mL; activity in 5% DSS murine colitis (DAI), in words [1]: highly active; disease activity index (DAI) [1, 6]: no significant (P>0.05) effect; disease activity index (DAI) [1, 5]: 3.2±0.73; solubility ([4]; Milli-RO water, water, read-out: solubility, Milli-RO H20): 1.38 µg/mL (≈ 3.61 µM); aqueous solubility, in words [4]: limited aqueous solubility; solubility ([4]; pH 4.0 buffer, pH 4, aqueous buffer, read-out: solubility, pH 4.0 Buffer): 0.33 µg/mL (≈ 0.863 µM); solubility ([4]; pH 7.0 buffer, pH 7, aqueous buffer, read-out: solubility, pH 7.0 Buffer): 320 µg/mL (≈ 837 µM); solubility ([4]; pH 9.0 buffer, pH 9, aqueous buffer, read-out: solubility, pH 9.0 Buffer): 370 µg/mL (≈ 966 µM)

For `O=C(O)c1ccc(C[C@@]2(C3=Cc4ccccc4C3)Cc3ccccc3[C@H]2O)cc1` (single isomer, unassigned) [Compound 2], which “IL-2 production, absolute values” ([2]; compound 1 uM) is on record?
Its value is 98.71 pg/mL.

What about the “IL-2 production, absolute values” ([2]; compound 10 uM) of the same molecule?
The value was 124.36 pg/mL.

What about the “activity in 5% DSS murine colitis (DAI), in words” value [1] of the same molecule?
Its value is “highly active”.

What about the “potency compared among the four enantiomers, in words” value ([1]; 30 and 10 mg/kg) of the same molecule?
Its value is “most potent of the four enantiomers”.

What about the “disease activity index (DAI)” value [1, 6] of the same molecule?
The value was 2.1±0.7.

What about the “disease activity index (DAI)” value [1, 5] of the same molecule?
The value was 2.5±0.71.

And the “aqueous solubility, in words” value [4]?
The value was “limited aqueous solubility”.

With `CCCOC(=O)c1ccc(C[C@]2(C3=Cc4ccccc4C3)Cc3ccccc3[C@@H]2OC(=O)[C@@H](N)CC(C)C)cc1` [Compound 34, propyl 4-(((1R,2R)-1-(((S)-2-amino-4-methylpentanoyl)oxy)-2,3-dihydro-1H,1′H-[2,2′-biinden]-2-yl)methyl)benzoate] as the molecule, how does the activity at 1 µM ([2]; Homo sapiens, Jurkat, 1 μM, read-out: IL2 release as percentage of anti-CD3/CD28 stimulated release in presence of DMSO, Mean) read?
Its activity at 1 µM is 95.8%.

What about the activity at 10 µM ([2]; Homo sapiens, Jurkat, 10 μM, read-out: IL2 release as percentage of anti-CD3/CD28 stimulated release in presence of DMSO, Mean) of the same molecule?
Its activity at 10 µM is 51.5%.

What about the “IL-2 production, absolute values” ([2]; compound 1 uM) of the same molecule?
Its value is 173.25 pg/mL.

And the “IL-2 production, absolute values” ([2]; compound 10 uM)?
The value was 71.38 pg/mL.

Which “IL-2 production, absolute values” ([2]; compound 1 uM) does the source give for `CCCOC(=O)c1ccc(C[C@@]2(C3=Cc4ccccc4C3)Cc3ccccc3[C@H]2O)cc1` [Compound 19, propyl 4-(((1S,2S)-1-hydroxy-2,3-dihydro-1H,1′H-[2,2′-biinden]-2-yl)methyl)benzoate] here?
The value was 174.44 pg/mL.

And the “IL-2 production, absolute values” ([2]; compound 10 uM)?
Its value is 81.00 pg/mL.
